Measurements: US20240426847A1, “COMPOSITIONS AND METHODS FOR THE DETERMINATION OF SODIUM CONCENTRATION” (The University of Chicago, priority 2023, published 2024)

How the values were obtained:
[1] = molecular target: T1, PIKfyve (Mus musculus, UniProt Q9Z1T6); experiment: Pharmacological inhibition of macrophages, lysosomal Na^+ measured with RatiNa; format: cell-based, murine; settings: RAW 264.7 macrophages, 100 nM apilimod 1 h; native lysosomes ~48 mM
T1 construct: endogenous in cells; host or cells: RAW 264.7 macrophages
Method: 1 μM RatiNa in prewarmed Opti-MEM was added to RAW macrophage and incubated for 2 h for maximum RatiNa uptake. Cells were then washed 3 times with PBS and incubated in prewarmed complete DMEM medium for 30 min to allow lysosome targeting of RatiNa. RatiNa in cell was then imaged in confocal microscope or widefield microscope.
RAW macrophage was treated with 100 nM apilimod for 1 h to inhibit PIKfyve. RatiNa treatment was done as stated previously with 100 nM apilimod in all medium. Cell was then imaged in confocal microscope.

[2] = ssDNA-CG Na^+ sensitivity by fluorescence; format: physicochemical; settings: 1 mM and 150 mM NaCl, 100 nM ssDNA-CG, pH 7.4 potassium phosphate buffer
Method: FIGS. 12A-12B illustrate the validation of CG-DNA conjugate efficiency and Na^+ sensitivity. […] Molar ratio of DNA to CG is confirmed to be ˜ 1:1 confirming the coupling efficiency. […] 1 mM and 150 mM NaCl was added to 100 nM of ssDNA-CG in pH 7.4 potassium phosphate buffer. Fluorescence maximum at 545 increases more than 5-fold.
100 nM of RatiNa was aliquoted in UB buffer (10 mM HEPES, MES and potassium acetate, 140 mM NaCl/KCl). pH adjusted by HCl or KOH) Fluorescent emission spectra was taken by Fluoromax (Horiba) with the following collection parameters: For CG, dex=522 nm, range from 530 nm to 600 nm. For ATTO647N, dex=645 nm, range from 660 nm to 700 nm.

T1 sequence (Q9Z1T6 whole entry): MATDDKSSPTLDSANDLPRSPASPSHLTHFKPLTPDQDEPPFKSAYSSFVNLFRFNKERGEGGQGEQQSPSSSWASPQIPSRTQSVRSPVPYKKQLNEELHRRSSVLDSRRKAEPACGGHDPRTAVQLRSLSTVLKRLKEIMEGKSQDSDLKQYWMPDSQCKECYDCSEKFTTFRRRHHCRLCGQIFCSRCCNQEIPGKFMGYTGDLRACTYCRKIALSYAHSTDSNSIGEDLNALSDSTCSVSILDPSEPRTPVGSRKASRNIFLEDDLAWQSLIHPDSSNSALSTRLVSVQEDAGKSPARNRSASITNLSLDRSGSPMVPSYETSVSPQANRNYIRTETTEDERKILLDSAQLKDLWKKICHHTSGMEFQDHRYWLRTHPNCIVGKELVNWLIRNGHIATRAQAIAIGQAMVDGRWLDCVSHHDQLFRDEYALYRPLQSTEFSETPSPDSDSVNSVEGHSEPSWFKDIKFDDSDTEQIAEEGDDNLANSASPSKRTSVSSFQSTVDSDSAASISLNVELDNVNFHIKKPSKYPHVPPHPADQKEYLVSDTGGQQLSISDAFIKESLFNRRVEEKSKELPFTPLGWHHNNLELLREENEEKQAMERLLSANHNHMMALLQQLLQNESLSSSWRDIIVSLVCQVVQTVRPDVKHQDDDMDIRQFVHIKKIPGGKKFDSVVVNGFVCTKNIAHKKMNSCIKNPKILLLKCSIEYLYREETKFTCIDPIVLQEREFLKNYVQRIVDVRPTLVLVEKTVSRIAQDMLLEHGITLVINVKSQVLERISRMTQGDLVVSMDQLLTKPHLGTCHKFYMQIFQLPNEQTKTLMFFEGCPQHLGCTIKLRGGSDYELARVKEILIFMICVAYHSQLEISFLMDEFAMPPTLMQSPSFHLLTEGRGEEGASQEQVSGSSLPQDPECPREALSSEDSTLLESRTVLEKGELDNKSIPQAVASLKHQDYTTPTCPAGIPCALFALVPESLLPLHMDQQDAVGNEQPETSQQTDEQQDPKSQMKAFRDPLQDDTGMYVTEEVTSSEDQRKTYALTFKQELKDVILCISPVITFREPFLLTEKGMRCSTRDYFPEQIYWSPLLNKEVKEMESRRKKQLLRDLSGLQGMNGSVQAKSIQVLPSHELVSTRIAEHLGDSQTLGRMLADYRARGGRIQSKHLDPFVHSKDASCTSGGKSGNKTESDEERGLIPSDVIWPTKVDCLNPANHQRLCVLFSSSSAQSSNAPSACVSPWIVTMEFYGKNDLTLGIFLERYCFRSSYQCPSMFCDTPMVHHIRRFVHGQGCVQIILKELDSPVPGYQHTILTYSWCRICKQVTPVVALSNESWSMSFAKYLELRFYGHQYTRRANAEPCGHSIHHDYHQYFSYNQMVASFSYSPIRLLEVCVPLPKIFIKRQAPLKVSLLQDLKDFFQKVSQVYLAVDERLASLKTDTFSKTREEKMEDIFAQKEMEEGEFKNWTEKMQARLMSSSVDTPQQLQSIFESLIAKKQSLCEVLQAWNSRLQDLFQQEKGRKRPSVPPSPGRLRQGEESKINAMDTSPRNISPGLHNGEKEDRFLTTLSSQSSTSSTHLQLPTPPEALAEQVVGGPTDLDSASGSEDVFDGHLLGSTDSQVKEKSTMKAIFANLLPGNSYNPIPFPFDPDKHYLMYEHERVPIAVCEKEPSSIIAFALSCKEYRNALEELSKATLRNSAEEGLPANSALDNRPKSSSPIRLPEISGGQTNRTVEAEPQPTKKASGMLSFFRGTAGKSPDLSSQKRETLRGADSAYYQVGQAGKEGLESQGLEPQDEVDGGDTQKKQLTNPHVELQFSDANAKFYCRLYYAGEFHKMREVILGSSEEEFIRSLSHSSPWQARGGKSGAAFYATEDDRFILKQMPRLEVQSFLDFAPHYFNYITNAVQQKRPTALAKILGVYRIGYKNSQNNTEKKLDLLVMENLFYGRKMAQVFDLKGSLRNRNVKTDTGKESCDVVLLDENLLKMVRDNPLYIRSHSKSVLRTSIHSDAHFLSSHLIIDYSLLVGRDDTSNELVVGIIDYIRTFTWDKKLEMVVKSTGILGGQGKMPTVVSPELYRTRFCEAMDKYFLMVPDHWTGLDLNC

| lysosomal Na^+ upon PIKfyve inhibition [1] [mM] | Molecule | increase of fluorescence maximum at 545 [2] |
| --- | --- | --- |
| ~70 | Cc1cccc(/C=N/Nc2cc(N3CCOCC3)nc(OCCc3ccccn3)n2)c1 [apilimod] |  |
|  | ssDNA-CG: 25mer ssDNA conjugated to CG dye by CuAAC coupling (CGATCAACACTGCATATATATACGACC; CG dye conjugated by CuAAC, chemistry not fully specified) | more than 5 fold |
